What was measured:
[1] = cited from earlier work
[2] = tested on: CT26 colon cancer cells; assay: Internalization of INS-FITC in CT26 cells, flow cytometry and fluorescent imaging; type: cell-based, mouse; conditions: INS-FITC alone
Protocol: CT26 colon cancer cells were seeded in 24-well plates at 100.000 cells/well/mL. After 24 hours, cells were treated with INS-FITC at 10 μM or 30 μM concentration either alone or in combination with the conjugate 4-hydroxybutyl L-tryptophanate in three different molar ratios (1:1, 1:3 or 3:1). Treatments were co-incubated with the CT26 cells for 1 h, 4 h or 24 h. Before observation, cells were washed several times with PBS, and with heparin, to ensure removal of compounds that might remain softly bound to cell membrane and not internalized. Then the washed cells were detached from the wells using trypsin, centrifuged and re-suspended in PBS for analysis by flow cytometry. In flow the cells were gated as singlets (single cell events) and then the fluorescence was recorded for each event in the specific FL channel were the compound has its emission max (INS-FITC: FL1 (525+/−40).

[3] = tested on: CT-26 cells; assay: Internalization of Paclitaxel (PTX) in CT-26 cells measured by flow cytometry; type: cell-based, mouse
Protocol: There is a remarkable increment in the percentage of cells containing PTX when co-administered with the conjugate, especially after 24 hours incubation. (c) depicts the amount of PTX internalization expressed as mean fluorescence intensity (MFI).

[4] = tested on: CT-26 cells; assay: Ethidium-homodimer internalization in CT-26 cells, fluorescent confocal microscopy; type: cell-based, mouse; conditions: EtDi alone, without conjugate
Protocol: CT-26 cells in culture were co-incubated with the conjugate system, 4-hydroxybutyl L-tryptophanate, (1 mg/ml) and Etidium-homodimer (2 μl/ml) for 1 hour and observed under fluorescent confocal microscope. Working ratio was set as 1:3 and two reaction sets comprising of higher (80 μl) loading and standard loading (40 μl ) were performed. Emission bandwidth was set as 490-550nm and 590-680 nm.

[5] = tested on: CT26 cells; assay: Uptake of Oxaliplatin by CT26 cells measured by ICP-MS; type: cell-based, mouse; conditions: 30 μM OxPt alone, peaking at 4 h
Protocol: CT26 cells were seeded in 24-well plate (100.000 cells/mL/well) exposed to Oxaliplatin (Ox-Pt, 10 μM and 30 μM) with/and without conjugate the molar ratio of 1:1, 1:3 and 3:1 respectively. After 1, 4, 24 hours of incubation, media was discarded and the cells were washed with PBS twice, once with heparin (to remove anything associated externally with the cell membrane) and once more with PBS. Then the cells were detached from the wells using trypsin and cells were counted. Finally, each sample was diluted in HCl acid and further diluted in 2% HCl with (0.5 ppb Ir), then Pt content was measured in the ICP-MS.

N[C@@H](Cc1c[nH]c2ccccc12)C(=O)O [tryptophan]
pKa of deprotonated carboxylic acid (—COO−) [1]: 2.38 | pKa of protonated amino group (—NH3+) [1]: 9.39

INS-FITC: fluorescently labelled insulin, insulin conjugated with FITC [reference compound]
internalization in cells (share of cells) [2]: 100%

CC(=O)O[C@H]1C(=O)[C@@]2(C)[C@H]([C@H](OC(=O)c3ccccc3)[C@]3(O)C[C@H](OC(=O)[C@H](O)[C@@H](NC(=O)c4ccccc4)c4ccccc4)C(C)=C1C3(C)C)[C@]1(OC(C)=O)CO[C@@H]1C[C@@H]2O [PTX, Paclitaxel, reference compound]
% cells uptake (1 h), CT-26 cells with PTX internalized ([3]; PTX 10 μM alone): 2.3% | % cells uptake (4 h), CT-26 cells with PTX internalized ([3]; PTX 10 μM alone): 2.4% | % cells with uptake (24 h), CT-26 cells with PTX internalized ([3]; PTX 10 μM alone): 7.7% | % cells uptake (1 h), CT-26 cells with PTX internalized ([3]; PTX 30 μM alone): 2.2% | % cells uptake (4 h), CT-26 cells with PTX internalized ([3]; PTX 30 μM alone): 3.0% | % cells with uptake (24 h), CT-26 cells with PTX internalized ([3]; PTX 30 μM alone): 7.6%

Nc1ccc2c(c1)c(-c1ccccc1)[n+](CCCNCCNCCC[n+]1c(-c3ccccc3)c3cc(N)ccc3c3ccc(N)cc31)c1cc(N)ccc21 [EtDi, Ethidium-homodimer, reference compound]
cell penetration of EtDi [4]: cannot penetrate into the cell

O=C1[O][Pt]2([NH][C@@H]3CCCC[C@H]3[NH]2)[O]C1=O [OxPt, Oxaliplatin, reference compound]
OxPt uptake over time [5]: no apparent increase

Source: patent publication US20230210994A1, “CELL-PENETRATING CONJUGATE SYSTEMS” (Danmarks Tekniske Universitet, priority 2019, published 2023)
